Source: patent publication US20160318856A1, “Substituted Urea eIF2alpha Kinase Activators” (THE BRIGHAM AND WOMEN'S HOSPITAL, INC., priority 2013, published 2016)
Read-outs that look alike come from different tables or passages of the source.

Columns and labels:
[1] = tested on: eIF2α phosphorylation (eIF2•GTP•Met-tRNAi ternary complex; HRI activation); experiment: surrogate dual luciferase eIF2α phosphorylation (ternary complex) assay; type: cell-based, human; details: for maximal fold induction: Homo sapiens; for C3X: Calculated concentration of compound that will cause three-fold increase in the surrogate eIF2α phosphorylation assay: Table 7
Procedure, shortened: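 Cell-based dual luciferase reporter: firefly luciferase behind the ATF-4 5′UTR (uORFs) and renilla luciferase behind a uORF-free 5′UTR, read with a dual glow kit. Activity given as firefly/renilla ratio normalised to DMSO wells set at 1, with a rising ratio reflecting reduced ternary complex (e.g., HRI activation).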

[2] = tested on: CRL-2813 human melanoma cancer cells; experiment: cell proliferation (SRB) assay, CRL-2813; type: cell-based
Procedure, shortened: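 Cells exposed 5 days to 0.5–20 μM compound, then TCA-fixed and stained with sulforhodamine B. Growth as 100×[(T−T0)/(C−T0)] from absorbance of treated, control and time-zero cultures; cell death as 100×[(T−T0)/T0] where T is below T0.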

ASPC-1 = experiment: cell proliferation assay, ASPC-1; type: cell-based; details: Homo sapiens, ASPC1; SRB assay, Table 7; read-out: IC50 ASPC-1
Protocol: (§1) Cells were seeded in 96-well plates and maintained for 5 days in the presence of 0.5 to 20 μM of individual compound, and cell proliferation was measured by the sulforhodamine B (SRB) assay as described previously (see, for example, Palakurthi, S. S. et al. Cancer Research 2000, 60(11), 2919-2925). Briefly, at the end of a 5-day treatment, cells were fixed in 10% cold trichloroacetic acid. Cell number was estimated by measuring the remaining bound dye of sulforhodamine B after washing. The percentage of growth was calculated by using the equation: 100×[(T−T0)/(C−T0)], where T and C represent the absorbance in treated and control cultures at Day 5, and T0 at time zero, respectively. If T is less than T0, cell death has occurred and can be calculated from 100×[(T−T0)/T0].
(§2) The compounds shown in Table 7 were evaluated using for activation of HRI using the dual luciferase surrogate eIF2α phosphorylation assay (see, for example, Chen, T. et al. Nature Chem Biol 2011, 7, 610-616) and for inhibition of cell proliferation using the SRB assay (see, for example, Palakurthi, S. S. et al. Cancer Res 2000, 60, 2919-2925) as described above.

Panc-1 = experiment: cell proliferation (SRB) assay, Panc-1; type: cell-based; details: Homo sapiens, Table 7
Protocol: as §1, §2

NIH/3T3 fibroblast cells = experiment: cell proliferation (SRB) assay, NIH/3T3; type: cell-based; details: for fold higher potency on cancer cells compared to non-transformed cells: CRL-2813 human melanoma vs NIH-3T3 fibroblast
Protocol: as §1
The experiments were conducted in triplicate, and each experiment was independently performed three times. IC50=effective dose of drug that inhibit cell proliferation by 50%. Data are shown as Mean±S.E.M.
Compounds I-6p, I-17, I-18 and I-20 were tested in NIH/3T3 fibroblast and CRL-2813 melanoma cancer cells in cell proliferation assay. The experiment was conducted in triplicate and each experiment was independently performed three times. Data are shown as Mean IC50±S.E.M.

[3] = tested on: CRL-2813 human melanoma cancer cells transfected with HRI-targeting or non-targeting siRNA; experiment: cell proliferation (SRB) assay after HRI knockdown; type: cell-based; details: CRL-2813 cells, FIG. 10
Protocol: as §1
Cell proliferation is a meaningful read-out for determining the specificity of a compound as it captures both on-target and off-target effects of the compound under study. […] If these compounds specifically activate HRI and this activity is required for the inhibition of cell proliferation, then reducing the expression of HRI should blunt their effect on cell proliferation. For this purpose, expression of HRI was knocked down in CRL-2813 human melanoma (about 70% knockdown efficiency) and MCF-7 human breast cancer cells (about 90% knockdown efficiency). These two cell lines were chosen because the HRI knockdown efficiency is lower in CRL-2813 than in MCF-7 cells providing a sort of dose-response data that correlates knockdown efficiency with the resistance of cells to inhibition of cell proliferation. […] Referring to FIG. 5A, CRL-2813 human melanoma cancer cells, and (FIG. 5B) MCF-7 human breast cancer cells were transfected with HRI targeted or non-targeted siRNA, treated with the indicated concentrations of I-6p and cell proliferation was measured by SRB assay. Calculated IC50 for all four compounds tested in CRL-2813 human melanoma cancer cells and MCF-7 human breast cancer cells transfected with non-target siRNA control (NTC) or HRI is shown in FIG. 5C and FIG. 5D, respectively. The experiment was conducted in triplicate and each experiment was independently performed three times. Data are shown as Mean±S.E.M. *NTC=non-target siRNA control.
Referring to FIG. 8, CRL-2813 human melanoma cancer cells were transfected with HRI targeted or non-targeted siRNA, treated with the indicated concentrations of (A) I-14, (B) I-15, (C) III-4 and (D) III-5 and cell proliferation was measured by SRB assay. Calculated IC50 for all four compounds tested in CRL-2813 human melanoma cancer cells transfected with non-target siRNA control (NTC) or HRI is shown in (E). The experiment was conducted in triplicate and each experiment was independently performed three times. Data are shown as Mean±S.E.M. *NTC=non-target siRNA control, IC50=effective dose of drug that inhibit cell proliferation by 50%.
In general, if the affinity of compounds for their molecular target is increased this should result in higher specificity of the compounds in the cell proliferation assay. […] These five compounds, two with average and three with high potency, were tested in cell proliferation assay using CRL-2813 cells transfected with non-targeted siRNA or HRI-targeted siRNA as described above.

[4] = DMSO = 1, maximum tested concentration 20 μM, read-out: Emax: Maximum activity of compound expressed as fold over vehicle
[5] = Homo sapiens, CRL2813, SRB assay, Table 7, read-out: IC50 CRL-2813
[6] = surrogate eIF2α phosphorylation assay, Table 3, read-out: Emax (F/R)
[7] = Homo sapiens, CRL2813, CRL-2813, Table 8, Mean IC50±S.E.M., read-out: IC50 of compounds
[8] = Homo sapiens, CRL2813, cell proliferation assay, Table 3, cell line not named, values equal CRL-2813 values of Table 8, read-out: IC50
[9] = Mus musculus, NIH3T3, NIH/3T3, Table 8, Mean IC50±S.E.M., read-out: IC50 of compounds

| Structure (SMILES) | maximal fold induction [1, 4] | C3X: Calculated concentration of compound that will cause three-fold increase in the surrogate eIF2α phosphorylation assay [1] [µM] | IC50 [2, 5] [nM] | IC50 (ASPC-1) [nM] | IC50 (Panc-1) [nM] | also measured |
| --- | --- | --- | --- | --- | --- | --- |
| NC(=O)c1cc(C(F)(F)F)ccc1O[C@H]1CC[C@H](NC(=O)Nc2cccc(C(F)(F)F)c2)CC1 | 8 | 7 | 1900 | 4000 | 2700 |  |
| NC(=O)c1cc(O[C@H]2CC[C@H](NC(=O)Nc3cccc(C(F)(F)F)c3)CC2)ccc1C(F)(F)F | 2.8 | >20 | 2100 | 3000 | 2500 |  |
| O=C(Nc1cccc(C(F)(F)F)c1)N[C@H]1CC[C@H](Oc2ccc(C(F)(F)F)cc2[N+](=O)[O-])CC1 | 13 | 5 | 4000 | > 10000 | 4000 |  |
| O=C(Nc1cccc(OC(F)(F)F)c1)N[C@H]1CC[C@H](Oc2ccc(C(F)(F)F)cc2[N+](=O)[O-])CC1 | 12 | 0.5 | 500 | 800 | 1100 |  |
| O=C(Nc1cccc(C(F)(F)F)c1)N[C@H]1CC[C@H](Oc2ccc(C(F)(F)F)cc2)CC1 | 25 | 0.4 | 500 | 900 | 900 |  |
| O=C(Nc1ccc(OC(F)(F)F)cc1)NC1CCC(Oc2ccc(F)cc2)CC1 (stereo not shown) [Compound I-6p] |  |  |  |  |  | Emax (F/R) ([1]; ternary complex assay, F/R normalized to vehicle (DMSO = 1)): 15.32 F/R; IC50 ([2]; CRL-2813, Table 5, Mean±S.E.M., read-out: IC50): 2700 ± 100 nM; IC50 ([2]; CRL-2813, Table 8, Mean IC50±S.E.M., read-out: IC50 of compounds): 2700 ± 100 nM; IC50 ([2]; cell proliferation assay (SRB, 5 days), cell line not named in Table 1, values equal CRL-2813 values of Tables 5/8, read-out: IC50): 2700 ± 100 nM; fold higher potency on cancer cells compared to non-transformed cells (NIH/3T3 fibroblast cells): five-fold higher potency; IC50 (NIH/3T3 fibroblast cells; NIH/3T3, Table 5, Mean±S.E.M., read-out: IC50): 13600 ± 800 nM; IC50 (NIH/3T3 fibroblast cells; NIH/3T3, Table 8, Mean IC50±S.E.M., read-out: IC50 of compounds): 13600 ± 800 nM |
| O=C(Nc1cccc(C(F)(F)F)c1)NC1CCC(Oc2ccc(C(F)(F)F)cc2)CC1 (stereo not shown) [Compound I-18, 1-(4-(4-(Trifluoromethyl)phenoxy)cyclohexyl)-3-(3-(trifluoromethyl)phenyl)urea] |  |  |  |  |  | maximal fold induction [1, 6]: 25.1; IC50 [2, 7]: 460 ± 100 nM; IC50 [2, 8]: 460 ± 100 nM; fold higher potency on cancer cells compared to non-transformed cells (NIH/3T3 fibroblast cells): highest discrimination between cancer and non-cancerous cells; IC50 (NIH/3T3 fibroblast cells; [9]): 3400 ± 100 nM; fold higher IC50 values in cells transfected with HRI-targeting siRNA vs. non-targeting siRNA [3]: ~7.5 fold |
| O=C(Nc1cccc(C(F)(F)F)c1)NC1CCC(Oc2cccc(C(F)(F)F)c2)CC1 (stereo not shown) [Compound I-20, 1-(4-(3-(Trifluoromethyl)phenoxy)cyclohexyl)-3-(3-(trifluoromethyl)phenyl)urea] |  |  |  |  |  | maximal fold induction [1, 6]: 26; IC50 [2, 7]: 1300 ± 100 nM; IC50 [2, 8]: 1300 ± 100 nM; IC50 (NIH/3T3 fibroblast cells; [9]): 3300 ± 200 nM; fold higher IC50 values in cells transfected with HRI-targeting siRNA vs. non-targeting siRNA [3]: ~5 fold |
